According to patent US20050112573A1, “Method of detecting toxic substance” (priority 2001, published 2005):
Where two headings read alike, the source gives them in different places.

Experiments:
[1] = test system: promoter of yeast gene YOR382w; type: cell-based, Saccharomyces cerevisiae W303
Description: (§1) The inventors of the present application understood that the induction of certain yeast genes by toxic substances is caused by the activation of the promoters of the genes by the toxic substances. Thus, the inventors prepared a vector that comprised a polynucleotide sequence comprising the promoter of the yeast gene, which sequence is operably linked to a polynucleotide encoding a marker protein; and transformed yeast cells with the vector. […] The working examples hereinafter illustrate the preparation of such vectors, transformation of yeast cells by use of said vectors, and the detection of toxic substances by use of the transformed cells.
(§2) Promoter assay is a method for determining variations of the level of intracellular genes without destroying cells on the basis of the level of expressed marker genes instead of the expressed mRNA. The gene selected to detect a chemical substance is expressed in the absence of chemical substances, and thus a marker protein also occurs in the absence of chemical substances. In the method according to the present invention, the behavior of yeast genes on the addition of test materials is determined on the basis of the level of expressed marker protein so that the presence or the absence, and the kind of toxic chemical substances are predicted. Thus, it is desired that the production of marker proteins is lower in the absence of chemical substances, and the production of marker proteins is higher in the presence of chemical substances.
(§3) Type YEp shuttle vector pYES2 (pYES2, Cat no: V825-20, Invirtogen Corporation, USA), which can be replicated both in E. coli. and yeast was used as vector (R. W. Old, S. B. Primrose Principles of Gene Manipulation 5th Ed., BAIFUKAN CO., LTD, pp138-165, pp.234-263, 2000). The portion of vector pQBI 63 (Cat no.54-0082, Wako Pure Chemical Industries, Ltd.) corresponding to a marker protein GFP was used as the polynucleotide encoding GFP (SEQ ID No: 6). First, the GFP polynucleotide was inserted into the multiple cloning sites of pYES2 to give a vector. Thereafter, the GAL1 promoter of pYES2 was replaced with the polynucleotide comprising the promoter sequence of the intended yeast gene YOR382w (SEQ ID No: 3) to give an intended plasmid vector. Suitable restriction enzymes were selected, and the insertion of the polynucleotide comprising GFP and the promoter sequence was conducted.
(§4) Next, the yeast Saccharomyces cerevisiae W303 was transformed with the resultant plasmid vector according to the following procedures: • 1) Incubating the yeast Saccharomyces cerevisiae W303 in 200 ml of SD medium under shaking until OD 660 reaches 0.5; • 2) Suspending the collected cells in 5 ml of TE-buffer; • 3) Adding 250 μL of 2.5M lithium acetate; • 4) Dispending each 300 μl, adding 10 μl of above plasmid vector thereto, then incubating the suspensions at 30° C. for 30 minutes; • 5) Adding 700 μl of 50% PEG4000, and incubating the mixture under shaking at 30° C. for 60 minutes; • 6) Giving heat shock (42° C., 5 minutes), and then immediately cooling the mixture; • 7) Washing the mixture twice with 1M sorbitol; and • 8) Seeding it on agar plates made of minimum essential medium.
(§5) The cells of SC-YOR382W-pQBI as prepared in Example 4 were contacted to one of the following compounds. The yeast cells SC-YOR382W-pQBI were incubated at 25° C. in SD medium (Yeast nitrogen base without amino acids (Difco 0919-15)+glucose+amino acids (adenine, histidine, tryptophan)). One of toxic chemical substances as shown below was added to the cells at logarithmic growth phase, and then the cells were further incubated for two hours.

[2] = test system: promoter of yeast gene YLR303w; type: cell-based, Saccharomyces cerevisiae W303; details: for expression of GFP: SC-YCR303W-pQBI cells (so in the source), summary of Table 14
Description: as §1, §2
as §3, with “YLR303w” for “YOR382w”, “5)” for “3)”
as §4
as §5, with “SC-YCR303W-pQBI” for “SC-YOR382W-pQBI”, “6” for “4”

[3] = cells SC-YOR382W-pQBI, 2 hours incubation with the substance at the concentration printed in its row (column Concentrations), GFP fluorescence vs control without chemical
[4] = cells SC-YCR303W-pQBI (so in the source), 2 hours incubation with the substance at the concentration printed in its row (column Concentrations), GFP fluorescence vs control without chemical
[5] = SC-YOR382W-pQBI cells, summary of Table 12

With `CCCCC(CC)COC(=O)c1ccccc1C(=O)OCC(CC)CCCC` (stereo not drawn) the Fluorescence [1, 3] was “− (the number of the cells having a higher fluorescence than the control was under 1%)” and the Fluorescence [2, 4] was “− (the number of the cells having a higher fluorescence than the control was under 1%)”.
With `O=[N+]([O-])c1cc[n+]([O-])c2ccccc12` [(5), 4-nitroquinolin-N-oxide] the “expression of GFP” value [1, 5] was “induced the expression of GFP”.
`Oc1cc(Cl)c(Cl)cc1Cl` [(6), 2,4,5-trichlorophenol] was tested, and the “expression of GFP” value [1] was “induced the expression of GFP”.
`C[S+](C)[O-]` [(15), dimethylsulfoxide] was tested, and the “expression of GFP” value [1, 5] was “induced the expression of GFP”.
`CCN(CC)C(=O)SCc1ccc(Cl)cc1` [S-4-Chlorobenzyl-N,N-diethylthiocarbamate] was tested, and the Fluorescence [1, 3] was “− (the number of the cells having a higher fluorescence than the control was under 1%)” and the Fluorescence [2, 4] was “− (the number of the cells having a higher fluorescence than the control was under 1%)”.
With `CC(=O)O.Cc1nc(N)cc2[nH]c3ccccc3c12` [Trp-P-2 (acetate)] the Fluorescence [1] was “++ (key: −: the number of the cells having a higher fluorescence than the control was under 1%; +: between 1% and 2%; ++: 2% or more)”, the “expression of GFP” value [1] was “induced the expression of GFP” and the Fluorescence [2] was “− (key: −: the number of the cells having a higher fluorescence than the control was under 1%; +: between 1% and 2%; ++: 2% or more)”.
`O=S(=O)([O-])[O-].[Cu+2]` [copper sulfate (II)] was tested, and the Fluorescence [1] was “− (key: −: the number of the cells having a higher fluorescence than the control was under 1%; +: between 1% and 2%; ++: 2% or more)” and the Fluorescence [2] was “− (key: −: the number of the cells having a higher fluorescence than the control was under 1%; +: between 1% and 2%; ++: 2% or more)”.
In the case of `CCOC(=O)CC(SP(=S)(OC)OC)C(=O)OCC` (stereo not drawn) [malathon], the “expression of GFP” value [1, 5] is reported as “induced the expression of GFP”, the Fluorescence [1, 3] is reported as “++ (2% or more)” and the Fluorescence [2, 4] is reported as “− (the number of the cells having a higher fluorescence than the control was under 1%)”.
In the case of `[CH3][Hg][Cl]` [methylmercury chloride], the Fluorescence [1, 3] is reported as “− (the number of the cells having a higher fluorescence than the control was under 1%)” and the Fluorescence [2, 4] is reported as “− (the number of the cells having a higher fluorescence than the control was under 1%)”.
With `[Cl][Ni][Cl]` [nickel (II) chloride] the Fluorescence [1] was “++ (key: −: the number of the cells having a higher fluorescence than the control was under 1%; +: between 1% and 2%; ++: 2% or more)”, the “expression of GFP” value [1] was “induced the expression of GFP” and the Fluorescence [2] was “− (key: −: the number of the cells having a higher fluorescence than the control was under 1%; +: between 1% and 2%; ++: 2% or more)”.
In the case of `[K+].[K+].[O]=[Cr](=[O])([O-])[O][Cr](=[O])(=[O])[O-]` [potassium bichromate], the “expression of GFP” value [1, 5] is reported as “induced the expression of GFP”, the Fluorescence [1, 3] is reported as “++ (2% or more)” and the Fluorescence [2, 4] is reported as “− (the number of the cells having a higher fluorescence than the control was under 1%)”.
`[Cl][Sn]([c]1ccccc1)([c]1ccccc1)[c]1ccccc1` [triphenyltin chloride] was tested, and the Fluorescence [1, 3] was “− (the number of the cells having a higher fluorescence than the control was under 1%)” and the Fluorescence [2, 4] was “− (the number of the cells having a higher fluorescence than the control was under 1%)”.
CdCl2 [(2)] was tested, and the Fluorescence [1, 3] was “− (the number of the cells having a higher fluorescence than the control was under 1%)”, the “expression of GFP” value [2] was “induced the expression of GFP” and the Fluorescence [2, 4] was “++ (2% or more)”.
For HgCl2 [(3)], the Fluorescence [1, 3] was “− (the number of the cells having a higher fluorescence than the control was under 1%)”, the “expression of GFP” value [2] was “induced the expression of GFP” and the Fluorescence [2, 4] was “++ (2% or more)”.
With Na2As [(1)] the Fluorescence [1, 3] was “− (the number of the cells having a higher fluorescence than the control was under 1%)”, the “expression of GFP” value [2] was “induced the expression of GFP” and the Fluorescence [2, 4] was “++ (2% or more)”.
In the case of “manganese ethylenebis(dithiocarbamate) [(8)]”, the “expression of GFP” value [1, 5] is reported as “induced the expression of GFP”, the Fluorescence [1, 3] is reported as “++ (2% or more)” and the “expression of GFP” value [2] is reported as “induced the expression of GFP”.
γ-hexachlorocyclohexane [(7)] was tested, and the Fluorescence [1, 3] was “− (the number of the cells having a higher fluorescence than the control was under 1%)” and the Fluorescence [2, 4] was “− (the number of the cells having a higher fluorescence than the control was under 1%)”.
